In assay [1] the target is Induced myeloid leukemia cell differentiation protein Mcl-1 (Homo sapiens, UniProt Q07820). In kind it is functional.
In a further assay the test system is Vero. The assay is described as follows: Vero cell cytotoxicity, cytotoxicity control for flavivirus capping enzyme inhibitors (AID 588742). In kind it is functional. Particulars: Chlorocebus sabaeus.
In the next assay the target is Genome polyprotein (dengue virus type 2, UniProt P29990). The assay is described as follows: Dengue-2 NS5 methyltransferase inhibitors, primary screen, biochemical, confirmation dose response (AID 588689). It counts as functional.
Sequence of Genome polyprotein (P29990 2492-3391 limits assumed): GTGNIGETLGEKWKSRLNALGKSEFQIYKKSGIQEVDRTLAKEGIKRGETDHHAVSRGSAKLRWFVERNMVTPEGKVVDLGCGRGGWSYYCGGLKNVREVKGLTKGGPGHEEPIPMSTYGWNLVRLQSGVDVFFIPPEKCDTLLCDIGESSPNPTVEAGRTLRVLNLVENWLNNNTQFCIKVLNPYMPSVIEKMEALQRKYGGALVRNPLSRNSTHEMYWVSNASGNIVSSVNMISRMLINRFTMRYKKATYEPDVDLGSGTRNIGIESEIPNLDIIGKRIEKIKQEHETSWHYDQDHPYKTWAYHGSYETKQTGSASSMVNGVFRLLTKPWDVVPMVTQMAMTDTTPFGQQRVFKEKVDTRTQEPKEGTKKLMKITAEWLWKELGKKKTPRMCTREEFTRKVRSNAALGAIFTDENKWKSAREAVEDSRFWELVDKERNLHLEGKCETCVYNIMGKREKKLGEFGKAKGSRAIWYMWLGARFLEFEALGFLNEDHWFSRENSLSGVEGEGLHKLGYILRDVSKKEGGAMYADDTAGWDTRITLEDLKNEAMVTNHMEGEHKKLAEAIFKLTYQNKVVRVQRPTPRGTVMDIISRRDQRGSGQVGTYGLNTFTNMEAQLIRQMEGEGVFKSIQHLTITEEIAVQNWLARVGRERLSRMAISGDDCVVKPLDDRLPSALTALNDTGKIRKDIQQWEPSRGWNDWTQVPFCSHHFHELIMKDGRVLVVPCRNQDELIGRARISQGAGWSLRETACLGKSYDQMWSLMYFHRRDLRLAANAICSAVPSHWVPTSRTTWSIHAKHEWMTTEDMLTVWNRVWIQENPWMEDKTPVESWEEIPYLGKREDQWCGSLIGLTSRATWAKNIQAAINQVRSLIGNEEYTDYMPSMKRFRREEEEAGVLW
Assay [2] deals with Voltage-dependent T-type calcium channel subunit alpha-1H (Homo sapiens, UniProt O95180). In kind it is functional.
Sequence of Voltage-dependent T-type calcium channel subunit alpha-1H (O95180 whole entry): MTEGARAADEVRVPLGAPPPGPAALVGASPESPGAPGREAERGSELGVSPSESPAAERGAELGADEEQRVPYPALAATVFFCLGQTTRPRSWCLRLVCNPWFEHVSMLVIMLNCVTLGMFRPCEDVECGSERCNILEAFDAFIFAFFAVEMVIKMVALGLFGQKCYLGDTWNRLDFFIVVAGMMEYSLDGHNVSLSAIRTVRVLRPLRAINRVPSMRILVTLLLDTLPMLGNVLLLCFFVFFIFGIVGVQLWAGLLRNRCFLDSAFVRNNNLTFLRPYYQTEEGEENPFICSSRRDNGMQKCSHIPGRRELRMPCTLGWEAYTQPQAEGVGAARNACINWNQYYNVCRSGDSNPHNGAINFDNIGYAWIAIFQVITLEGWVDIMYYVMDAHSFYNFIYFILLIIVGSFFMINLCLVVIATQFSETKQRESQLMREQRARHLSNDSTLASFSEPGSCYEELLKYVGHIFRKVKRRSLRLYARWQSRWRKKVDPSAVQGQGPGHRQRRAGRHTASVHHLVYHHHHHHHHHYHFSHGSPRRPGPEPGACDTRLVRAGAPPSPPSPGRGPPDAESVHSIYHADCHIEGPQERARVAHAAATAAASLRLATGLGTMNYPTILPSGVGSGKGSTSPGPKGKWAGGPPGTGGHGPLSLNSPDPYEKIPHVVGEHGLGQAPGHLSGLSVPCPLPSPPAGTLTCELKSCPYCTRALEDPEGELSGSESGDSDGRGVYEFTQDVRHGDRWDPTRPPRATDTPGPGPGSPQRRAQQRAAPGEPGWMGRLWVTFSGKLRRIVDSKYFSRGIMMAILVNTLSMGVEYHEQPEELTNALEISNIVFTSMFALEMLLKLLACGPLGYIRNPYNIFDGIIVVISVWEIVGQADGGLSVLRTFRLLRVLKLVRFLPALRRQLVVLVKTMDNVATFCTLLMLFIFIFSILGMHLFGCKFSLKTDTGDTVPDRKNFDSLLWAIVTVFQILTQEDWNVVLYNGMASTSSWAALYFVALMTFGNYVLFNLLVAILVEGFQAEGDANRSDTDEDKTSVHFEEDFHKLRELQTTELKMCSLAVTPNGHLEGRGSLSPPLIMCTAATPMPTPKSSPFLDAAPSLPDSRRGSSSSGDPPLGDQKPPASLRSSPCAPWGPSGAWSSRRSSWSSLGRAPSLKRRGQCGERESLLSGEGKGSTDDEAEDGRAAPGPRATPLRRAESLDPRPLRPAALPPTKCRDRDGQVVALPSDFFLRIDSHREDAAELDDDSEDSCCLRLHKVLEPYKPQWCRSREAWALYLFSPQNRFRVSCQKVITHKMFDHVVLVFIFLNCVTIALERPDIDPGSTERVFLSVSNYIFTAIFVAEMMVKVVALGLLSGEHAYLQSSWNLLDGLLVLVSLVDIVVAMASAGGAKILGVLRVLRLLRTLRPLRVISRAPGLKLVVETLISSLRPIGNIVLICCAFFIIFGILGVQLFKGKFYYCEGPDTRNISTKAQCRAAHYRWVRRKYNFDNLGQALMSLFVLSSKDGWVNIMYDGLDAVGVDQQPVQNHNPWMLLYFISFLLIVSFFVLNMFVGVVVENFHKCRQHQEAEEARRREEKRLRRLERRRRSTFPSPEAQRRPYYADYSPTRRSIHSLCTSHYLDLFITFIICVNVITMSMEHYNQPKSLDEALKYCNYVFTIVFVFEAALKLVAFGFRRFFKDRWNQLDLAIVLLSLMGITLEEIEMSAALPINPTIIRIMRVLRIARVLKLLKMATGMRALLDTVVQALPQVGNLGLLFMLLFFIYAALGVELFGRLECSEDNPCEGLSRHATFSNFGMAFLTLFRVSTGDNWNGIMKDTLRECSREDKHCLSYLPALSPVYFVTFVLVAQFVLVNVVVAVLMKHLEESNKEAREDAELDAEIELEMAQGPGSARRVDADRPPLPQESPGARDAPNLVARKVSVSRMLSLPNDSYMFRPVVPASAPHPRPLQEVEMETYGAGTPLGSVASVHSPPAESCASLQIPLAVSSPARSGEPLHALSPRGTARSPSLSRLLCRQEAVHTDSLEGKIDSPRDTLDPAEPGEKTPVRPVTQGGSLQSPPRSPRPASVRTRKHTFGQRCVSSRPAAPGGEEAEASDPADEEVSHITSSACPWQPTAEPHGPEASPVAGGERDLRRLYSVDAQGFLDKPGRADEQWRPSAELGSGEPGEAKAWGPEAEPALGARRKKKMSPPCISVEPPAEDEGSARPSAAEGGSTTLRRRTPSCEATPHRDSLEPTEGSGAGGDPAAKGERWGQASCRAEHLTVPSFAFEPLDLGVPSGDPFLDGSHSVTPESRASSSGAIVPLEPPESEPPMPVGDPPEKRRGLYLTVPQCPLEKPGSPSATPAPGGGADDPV
For another assay, the target named is Cysteine protease ATG4B (Homo sapiens, UniProt Q9Y4P1). It counts as functional.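 Note: Fluorescence-based dose-response confirmation assay measuring inhibition of ATG4B activity.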
Another assay has as its target Phospholipase A2 (Homo sapiens, UniProt P04054). It counts as functional.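 Note: confirmatory dose-response counterscreen on phospholipase A2, testing hits that came from an ultra-high-throughput screen for ATG4B inhibitors.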
The nature of assay [3]: HEp-2 cell cytotoxicity, dose response, cytotoxicity control for RSV inhibitor project, HTS (AID 2410). It counts as functional. Particulars: human respiratory syncytial virus.
A short description of assay [4]: growth suppression of PTEN-null colon cells, dose response, cell-based, HCT116 PTEN knockout (AID 1047).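 Note: HCT116 colon tumor cells with PTEN knocked out; cells exposed to compound for 60 hours before readout; potency for loss of cell viability measured by luminescence.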 In kind it is functional.
Assay [5] in a line: growth suppression of beta-catenin-knockout colon cells, dose response, cell-based, HCT116, human colon tumor (AID 1045).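 Note: HCT116 colon tumor cells with beta catenin knocked out; cells exposed to compound for 60 hours.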 In kind it is functional.
In another assay the test system is CHO. The assay is described as follows: cytotoxicity in TLR9-MyD88 CHO cells, dose response, cytotoxicity control for TLR9-MyD88 binding inhibitor project, cell-based, luminescence (AID 588339).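 Note: CHO cells stably coexpressing TLR9 and MyD88 fusions from primary screen; compound exposure lasted 48 hours before viability readout.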 In kind it is functional, hamster. Particulars: Cricetulus griseus.
The next assay deals with Beta Lactamase (Pseudomonas aeruginosa, UniProt Q932Y6). The assay is described as follows: beta-lactamase reporter inhibitor potency, dose response, artefact control for TLR9-MyD88 binding inhibitor project, BLA reporter cells, FRET fluorescence (AID 588341).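 Note: cell based assay in CHO-K1 cells stably expressing beta-lactamase.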 In kind it is cell-based.
Sequence of Beta Lactamase (Q932Y6 whole entry): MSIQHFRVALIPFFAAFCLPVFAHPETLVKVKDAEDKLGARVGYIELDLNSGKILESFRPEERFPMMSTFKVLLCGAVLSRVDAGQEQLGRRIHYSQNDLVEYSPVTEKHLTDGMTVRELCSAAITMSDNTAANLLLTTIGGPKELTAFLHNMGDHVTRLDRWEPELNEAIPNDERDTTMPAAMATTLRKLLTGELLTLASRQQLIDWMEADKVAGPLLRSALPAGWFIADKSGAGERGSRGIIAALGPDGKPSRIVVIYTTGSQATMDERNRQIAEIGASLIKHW
The target of assay [6] is T1, Sentrin-specific protease 8 (Homo sapiens, UniProt Q96LD8).
T1 sequence (Q96LD8 whole entry): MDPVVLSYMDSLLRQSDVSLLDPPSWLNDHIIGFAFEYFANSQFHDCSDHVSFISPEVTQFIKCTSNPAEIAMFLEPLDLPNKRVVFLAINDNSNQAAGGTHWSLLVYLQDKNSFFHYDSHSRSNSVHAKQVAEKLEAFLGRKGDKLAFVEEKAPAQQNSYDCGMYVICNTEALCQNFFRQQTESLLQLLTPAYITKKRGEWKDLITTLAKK
The assay is described as follows: SENP8 protease inhibitors, SAR follow-up, biochemical, luminescence (AID 504501). It counts as functional.

Another assay has as its target T2, Caspase-3 (Homo sapiens, UniProt P42574).
T2 sequence (P42574 whole entry): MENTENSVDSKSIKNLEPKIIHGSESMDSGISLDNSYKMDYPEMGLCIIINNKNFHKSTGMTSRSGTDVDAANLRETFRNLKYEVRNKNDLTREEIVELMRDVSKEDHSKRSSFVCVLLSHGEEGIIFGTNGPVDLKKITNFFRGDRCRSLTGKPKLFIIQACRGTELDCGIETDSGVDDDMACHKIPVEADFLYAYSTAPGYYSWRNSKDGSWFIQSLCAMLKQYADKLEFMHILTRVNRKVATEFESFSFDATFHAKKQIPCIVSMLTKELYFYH
The assay is described as follows: SAR Analysis of small molecule inhibitors of Sentrin-specific proteases (SENPs) using a Caspase-3 Selectivity assay. [Related pubchem assays (depositor defined):AID2540, AID2599, AID434973, AID489001]. In kind it is functional.

Assay [7] addresses T3, Sentrin-specific protease 6 (Homo sapiens, UniProt Q9GZR1).
T3 sequence (Q9GZR1 whole entry): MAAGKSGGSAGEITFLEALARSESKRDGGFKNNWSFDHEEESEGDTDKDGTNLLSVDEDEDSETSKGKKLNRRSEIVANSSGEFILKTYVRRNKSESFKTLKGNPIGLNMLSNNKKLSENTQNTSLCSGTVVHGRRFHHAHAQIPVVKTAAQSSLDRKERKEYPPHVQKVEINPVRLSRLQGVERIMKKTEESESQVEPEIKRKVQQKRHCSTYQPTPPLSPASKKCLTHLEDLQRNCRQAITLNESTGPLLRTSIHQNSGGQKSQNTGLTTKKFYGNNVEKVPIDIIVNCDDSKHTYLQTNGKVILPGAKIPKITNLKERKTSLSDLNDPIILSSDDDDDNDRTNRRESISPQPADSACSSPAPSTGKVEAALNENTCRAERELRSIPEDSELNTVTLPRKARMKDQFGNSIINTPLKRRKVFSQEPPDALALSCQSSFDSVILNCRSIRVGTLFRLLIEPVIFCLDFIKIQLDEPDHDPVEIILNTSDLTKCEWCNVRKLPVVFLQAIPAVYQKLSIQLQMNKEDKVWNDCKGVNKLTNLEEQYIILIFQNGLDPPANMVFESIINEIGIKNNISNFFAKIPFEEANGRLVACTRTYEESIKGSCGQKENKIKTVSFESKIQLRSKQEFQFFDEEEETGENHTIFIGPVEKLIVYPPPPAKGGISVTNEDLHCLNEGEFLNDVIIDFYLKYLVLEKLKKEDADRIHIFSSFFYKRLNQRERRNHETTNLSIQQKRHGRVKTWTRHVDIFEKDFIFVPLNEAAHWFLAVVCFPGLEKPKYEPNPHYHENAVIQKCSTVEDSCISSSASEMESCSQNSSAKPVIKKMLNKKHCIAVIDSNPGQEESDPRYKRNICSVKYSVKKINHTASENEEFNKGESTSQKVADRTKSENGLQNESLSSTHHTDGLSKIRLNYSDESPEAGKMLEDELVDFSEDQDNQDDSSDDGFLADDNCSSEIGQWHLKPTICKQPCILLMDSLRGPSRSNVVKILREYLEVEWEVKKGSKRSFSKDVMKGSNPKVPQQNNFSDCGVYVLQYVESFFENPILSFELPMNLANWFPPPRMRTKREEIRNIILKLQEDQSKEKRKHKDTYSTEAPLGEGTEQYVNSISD
The assay is described as follows: SAR Analysis of small molecule inhibitors of Sentrin-specific protease 6 (SENP6) using a Luminescent assay. [Related pubchem assays (depositor defined):AID2582, AID2599]. It counts as functional.

Assay [8] addresses T4, Sentrin-specific protease 7 (Homo sapiens, UniProt Q9BQF6).
T4 sequence (Q9BQF6 whole entry): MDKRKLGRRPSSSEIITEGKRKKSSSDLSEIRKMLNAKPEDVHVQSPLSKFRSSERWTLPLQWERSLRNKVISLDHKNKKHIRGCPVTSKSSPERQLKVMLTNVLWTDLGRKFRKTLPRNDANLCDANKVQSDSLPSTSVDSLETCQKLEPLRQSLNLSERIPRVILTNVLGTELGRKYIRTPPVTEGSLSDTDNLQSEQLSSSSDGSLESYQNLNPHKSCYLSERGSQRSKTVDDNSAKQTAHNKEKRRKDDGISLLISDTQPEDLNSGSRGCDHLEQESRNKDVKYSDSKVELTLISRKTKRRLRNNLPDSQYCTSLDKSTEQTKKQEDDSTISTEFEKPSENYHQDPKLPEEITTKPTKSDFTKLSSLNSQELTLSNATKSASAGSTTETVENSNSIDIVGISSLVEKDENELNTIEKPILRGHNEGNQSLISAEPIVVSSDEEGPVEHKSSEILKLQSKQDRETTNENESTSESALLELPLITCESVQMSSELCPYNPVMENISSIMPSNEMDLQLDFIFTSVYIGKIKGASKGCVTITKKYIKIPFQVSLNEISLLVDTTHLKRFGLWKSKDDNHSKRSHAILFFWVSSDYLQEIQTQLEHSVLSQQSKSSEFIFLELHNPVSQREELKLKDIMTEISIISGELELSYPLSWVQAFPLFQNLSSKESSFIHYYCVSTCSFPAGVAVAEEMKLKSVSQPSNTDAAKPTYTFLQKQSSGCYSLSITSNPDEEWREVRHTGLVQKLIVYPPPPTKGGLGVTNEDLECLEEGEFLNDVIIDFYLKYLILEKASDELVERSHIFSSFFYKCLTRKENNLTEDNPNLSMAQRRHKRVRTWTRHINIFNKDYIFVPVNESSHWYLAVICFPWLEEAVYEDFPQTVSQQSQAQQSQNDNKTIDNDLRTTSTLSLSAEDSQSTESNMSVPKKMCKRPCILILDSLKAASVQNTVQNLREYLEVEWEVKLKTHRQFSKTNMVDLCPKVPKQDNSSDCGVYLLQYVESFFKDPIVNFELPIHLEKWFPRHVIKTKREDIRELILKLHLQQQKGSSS
The assay is described as follows: SENP7 protease inhibitors, SAR follow-up, biochemical, luminescence (AID 504497). In kind it is functional.

The target of the next assay is LIM domain kinase 1 (Homo sapiens, UniProt P53667). The assay is described as follows: Navigating the Kinome. Panel member name: LIMK1. It counts as functional.
Assay [9] deals with Hepatocyte growth factor receptor (Homo sapiens, UniProt P08581). It counts as functional.
Assay [10] addresses T5, Serine/threonine-protein kinase Chk1 (Homo sapiens, UniProt O14757).
T5 sequence (O14757 whole entry): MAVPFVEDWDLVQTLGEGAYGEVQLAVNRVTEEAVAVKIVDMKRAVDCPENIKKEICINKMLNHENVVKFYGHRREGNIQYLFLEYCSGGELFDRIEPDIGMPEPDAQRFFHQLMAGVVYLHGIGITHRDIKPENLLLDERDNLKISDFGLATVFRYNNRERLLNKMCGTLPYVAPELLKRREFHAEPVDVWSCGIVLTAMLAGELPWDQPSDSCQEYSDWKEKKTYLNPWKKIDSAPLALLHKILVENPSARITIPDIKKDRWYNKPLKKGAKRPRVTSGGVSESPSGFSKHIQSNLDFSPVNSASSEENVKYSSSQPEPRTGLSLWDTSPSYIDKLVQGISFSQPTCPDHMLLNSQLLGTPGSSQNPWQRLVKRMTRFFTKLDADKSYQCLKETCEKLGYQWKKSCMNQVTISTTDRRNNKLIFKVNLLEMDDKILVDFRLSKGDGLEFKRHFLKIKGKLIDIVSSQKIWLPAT
In kind it is functional.

Assay [11] addresses Dual specificity tyrosine-phosphorylation-regulated kinase 1B (Homo sapiens, UniProt Q9Y463). The assay is described as follows: Navigating the Kinome. Panel member name: DYRK1B. In kind it is functional.
In assay [12] the target is Glycogen synthase kinase-3 beta (Homo sapiens, UniProt P49841). It counts as functional.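 Note: value comes from a broad kinome profiling panel, with GSK3B as the panel member.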
Assay [13] deals with Dual specificity protein kinase CLK4 (Homo sapiens, UniProt Q9HAZ1). In kind it is functional.
Sequence of Dual specificity protein kinase CLK4 (Q9HAZ1 whole entry): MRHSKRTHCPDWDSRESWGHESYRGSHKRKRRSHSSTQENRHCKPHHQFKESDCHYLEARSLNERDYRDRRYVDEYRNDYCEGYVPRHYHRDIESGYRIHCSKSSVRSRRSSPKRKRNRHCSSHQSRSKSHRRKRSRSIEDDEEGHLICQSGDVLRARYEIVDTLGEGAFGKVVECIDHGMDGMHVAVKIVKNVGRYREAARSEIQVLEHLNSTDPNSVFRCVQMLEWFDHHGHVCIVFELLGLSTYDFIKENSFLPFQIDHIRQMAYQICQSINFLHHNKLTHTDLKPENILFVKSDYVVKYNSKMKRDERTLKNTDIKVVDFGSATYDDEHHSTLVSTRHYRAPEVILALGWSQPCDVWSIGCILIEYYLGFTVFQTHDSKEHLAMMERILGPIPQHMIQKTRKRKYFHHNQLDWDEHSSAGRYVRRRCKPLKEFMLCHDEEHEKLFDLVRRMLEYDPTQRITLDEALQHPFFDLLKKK
Assay [14] has as its target Dual specificity tyrosine-phosphorylation-regulated kinase 1A (Homo sapiens, UniProt Q13627). In kind it is functional.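 Note: measured against DYRK1A as one member of a broad kinome profiling panel.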

The term IC50 denotes the point on the concentration scale where inhibition reaches its midpoint. For orientation: CC50 means the concentration at which the toxic effect on the cells reaches its halfway point. One may read the EC50 as the midpoint of the concentration-response curve. In general, Ki refers to the dissociation constant of the complex between target and ligand, obtained from inhibition or displacement.

Each structure is given as a SMILES string. The source made the active and inactive calls. A value given as a limit tells only on which side of the number the result lay.

Sequence of Phospholipase A2 (P04054 whole entry): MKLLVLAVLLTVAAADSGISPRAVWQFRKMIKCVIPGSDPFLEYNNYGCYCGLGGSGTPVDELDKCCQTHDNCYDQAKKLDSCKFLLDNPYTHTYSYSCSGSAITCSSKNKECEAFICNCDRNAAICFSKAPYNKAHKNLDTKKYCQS
Sequence of Dual specificity tyrosine-phosphorylation-regulated kinase 1B (Q9Y463 whole entry): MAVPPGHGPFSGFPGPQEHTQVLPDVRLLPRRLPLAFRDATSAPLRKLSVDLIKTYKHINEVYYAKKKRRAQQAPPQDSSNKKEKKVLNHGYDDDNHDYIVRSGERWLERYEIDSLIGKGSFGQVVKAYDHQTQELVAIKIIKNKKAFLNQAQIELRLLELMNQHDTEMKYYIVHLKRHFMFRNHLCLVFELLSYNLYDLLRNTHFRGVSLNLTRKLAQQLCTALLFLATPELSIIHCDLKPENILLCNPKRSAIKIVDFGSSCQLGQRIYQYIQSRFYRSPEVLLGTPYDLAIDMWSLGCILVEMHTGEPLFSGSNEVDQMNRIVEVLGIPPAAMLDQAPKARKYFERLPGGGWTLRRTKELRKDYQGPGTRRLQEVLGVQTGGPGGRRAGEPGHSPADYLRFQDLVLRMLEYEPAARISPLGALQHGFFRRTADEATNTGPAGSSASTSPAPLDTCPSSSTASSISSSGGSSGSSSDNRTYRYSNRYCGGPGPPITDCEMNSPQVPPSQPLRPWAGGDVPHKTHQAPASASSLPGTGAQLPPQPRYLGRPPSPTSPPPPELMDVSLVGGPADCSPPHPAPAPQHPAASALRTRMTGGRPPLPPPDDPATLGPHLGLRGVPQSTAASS

Consider `COc1ccccc1NC1=C(NC(C)=O)C(=O)c2ccccc2C1=O`, for which the IC50 in assay [1] is 2.28 µM (active); on Genome polyprotein, > 100 µM (active). Also, the CC50 with Vero was > 40 µM (active).

As to `COC(=O)COc1ccc(C(C2C(=O)CC(C)(C)CC2=O)C2C(=O)CC(C)(C)CC2=O)cc1`, the CC50 with Vero was > 40 µM (active). In addition, the IC50 at Genome polyprotein was 48 µM (active).

With `Cc1cccc(C)c1OCC(=O)Nc1cccc(NC(=O)c2ccco2)c1`, the EC50 in assay [2] was 6.78 µM (active). Besides, the IC50 is 15.9 µM (active) on Cysteine protease ATG4B and 8.37 µM (active) on Phospholipase A2.

On to `COc1ccccc1NS(=O)(=O)c1cc([N+](=O)[O-])ccc1N/N=C/c1c[nH]c2ccccc12`, for which the CC50 in assay [3] was 41.7 µM (active). Also, the EC50 in assay [4] was 21.9 µM (active); in [5] it was 21.8 µM (active). The results for the IC50 with CHO and at Beta Lactamase were 32 µM (inactive) and 2.74 µM (active), respectively.

Turning to `O=C(Nc1nc2ccc(Cl)cc2s1)c1nn(-c2ccccc2)ccc1=O`, the IC50 (in [6]; at Caspase-3; in [7]; in assay [8]) was > 99 µM (inactive) in each case.

Regarding `COC(=O)c1csc2ccc(=O)[nH]c12`, the Ki on LIM domain kinase 1 was 15.8 µM (active); in assay [9], 79.4 µM (active); in [10], 15.8 µM (active); in assay [11], 63.1 µM (active); in [12] it was 79.4 µM (active); in assay [13], 12.6 µM (active). Also, the Ki in assay [14] was 25.1 µM (active).

Source of the values: ChEMBL document CHEMBL1201862, “PubChem BioAssay data set” (2004).
